Experimental data reported in US20190255086A1, “Compositions and Methods for Treating an Infection” (CMPD Licensing, LLC, priority 2015, published 2019).

What was measured:
Sporothrix schenckii = assay: Expected efficacy of anti-fungal agents against various fungi (Table 4)
Trichophyton rubrum = assay: as above
Blastomyces dermatitidis = assay: as above
Candida species = assay: as above
Coccidioides immitis = conditions: expected efficacy
Aspergillus fumigatus = assay: Expected efficacy of anti-fungal agents against various fungi (Table 4)
Cryptococcus neoformans = assay: as above
[1] = test system: Trichophyton mentagrophytes; assay: as above
Histoplasma duboisii = conditions: expected efficacy
Leishmania donovani = assay: Expected efficacy of anti-fungal agents against various fungi (Table 4)
Aspergillus terreus = assay: as above
Aspergillus niger = assay: as above

Measured: Efficacy of various antifungal agents

CCC(C)n1ncn(-c2ccc(N3CCN(c4ccc(OC[C@H]5CO[C@](Cn6cncn6)(c6ccc(Cl)cc6Cl)O5)cc4)CC3)cc2)c1=O (mixture of isomers) [Itraconazole]
not listed: Leishmania donovani | Aspergillus terreus | Aspergillus niger
yes: all other assays above

C[C@@H]1[C@H](O)[C@@H](C)/C=C/C=C/C=C/C=C/C=C/C=C/C=C/[C@H](O[C@@H]2O[C@H](C)[C@@H](O)[C@H](N)[C@@H]2O)C[C@@H]2O[C@](O)(C[C@@H](O)C[C@@H](O)[C@H](O)CC[C@@H](O)C[C@@H](O)CC(=O)O[C@H]1C)C[C@H](O)[C@H]2C(=O)O [Amphotericin]
not listed: Sporothrix schenckii | Trichophyton rubrum | [1] | Histoplasma duboisii
yes: all other assays above
